Laboratory results published in PubChem BioAssay (NCI).
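Dose response: 5 concentrations. Exposure: 48 h. Format: 96-well plates. Endpoint: linear interpolation; highest concentration if not reached. At the TGI there is no net growth.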

Columns and labels:
Assay in all cases: inhibition of tumour cell growth, NCI panel, 48 h
[1] = test system: 786-0 renal
[2] = test system: A498 renal
[3] = test system: A549 NSCLC
[4] = test system: ACHN renal
[5] = test system: CAKI-1 renal
[6] = test system: CCRF-CEM leukemia
[7] = test system: DLD-1 colon
[8] = test system: DMS 114 small cell lung
[9] = test system: DMS 273 small cell lung
[10] = test system: EKVX NSCLC
[11] = test system: HCC-2998 colon
[12] = test system: HCT-116 colon
[13] = test system: HCT-15 colon
[14] = test system: HL-60(TB) leukemia
[15] = test system: HOP-18 NSCLC
[16] = test system: HOP-62 NSCLC
[17] = test system: HOP-92 NSCLC
[18] = test system: HT29 colon
[19] = test system: IGROV1 ovarian
[20] = test system: K-562 leukemia
[21] = test system: KM12 colon
[22] = test system: KM20L2 colon
[23] = test system: LOX IMVI melanoma
[24] = test system: LXFL 529 NSCLC
[25] = test system: M14 melanoma
[26] = test system: M19-MEL melanoma
[27] = test system: MOLT-4 leukemia
[28] = test system: NCI-H23 lung
[29] = test system: NCI-H460 lung
[30] = test system: NCI-H522 lung
[31] = test system: OVCAR-3 ovarian
[32] = test system: OVCAR-4 ovarian
[33] = test system: OVCAR-5 ovarian
[34] = test system: OVCAR-8 ovarian
[35] = test system: RPMI-8226 leukemia
[36] = test system: SF-268 CNS
[37] = test system: SF-295 CNS
[38] = test system: SF-539 CNS
[39] = test system: SK-MEL-28 melanoma
[40] = test system: SK-MEL-5 melanoma
[41] = test system: SK-OV-3 ovarian
[42] = test system: SN12C renal
[43] = test system: SNB-19 CNS
[44] = test system: SNB-75 CNS
[45] = test system: SNB-78 CNS
[46] = test system: SR leukemia
[47] = test system: SW-620 colon
[48] = test system: TK-10 renal
[49] = test system: U251 CNS
[50] = test system: UACC-257 melanoma
[51] = test system: UACC-62 melanoma
[52] = test system: UO-31 renal
[53] = test system: XF 498 CNS
[54] = test system: COLO 205 colon
[55] = test system: MALME-3M melanoma
[56] = test system: NCI-H226 lung
[57] = test system: RXF 393 renal
[58] = test system: SK-MEL-2 melanoma

Measured: TGI

CCN(CC)CCC(=O)N1CCc2c([nH]c3ccccc23)C1c1cccnc1 (stereo unspecified)
> 100 µM: [1] | [2] | [3] | [4] | [5] | [6] | [7] | [8] | [9] | [10] | [11] | [12] | [13] | [14] | [15] | [16] | [17] | [18] | [19] | [20] | [21] | [22] | [23] | [24] | [25] | [26] | [27] | [28] | [29] | [30] | [31] | [32] | [33] | [34] | [35] | [36] | [37] | [38] | [39] | [40] | [41] | [42] | [43] | [44] | [45] | [46] | [47] | [48] | [49] | [50] | [51] | [52] | [53]

Cc1ccc(NC(=O)C(=O)C2NC(=S)NC2=O)c([N+](=O)[O-])c1 (stereo unspecified)
> 100 µM: [1] | [2] | [3] | [4] | [5] | [6] | [54] | [7] | [8] | [9] | [10] | [11] | [12] | [13] | [14] | [15] | [16] | [17] | [18] | [19] | [20] | [21] | [22] | [23] | [24] | [25] | [26] | [55] | [27] | [56] | [28] | [29] | [30] | [31] | [32] | [33] | [34] | [35] | [57] | [36] | [37] | [38] | [58] | [39] | [40] | [41] | [42] | [43] | [44] | [45] | [46] | [47] | [48] | [49] | [50] | [51] | [52] | [53]
